From patent US6274615A, “Method for delaying the onset of alheimer's disease and for treatment or delaying the onset of other amyloidosis-related diseases/disorders” (South Alabama Medical Science Foundation, priority 1999, dated 2001)
Entries after “also recorded” stand apart in the source; their conditions may differ. Read-outs that look alike come from different tables or passages of the source. Values belong to the compound of their own block, whether it stands above or below them.

What was measured:
Aβ1-40 [1] = target: T1, Aβ1-40 (Homo sapiens, UniProt P05067); experiment: Circular dichroism spectroscopy of Aβ1-40 (secondary structure); conditions: for structural changes (secondary structure) / change of random conformation / change of β-sheet content: Aβ1-40 250 μM + 100 μM compound; for structural changes (secondary structure): 24 h; for change of random conformation / change of β-sheet content: time 0
T1 construct: aggregates to fibrils
Method: (§1) The corresponding percentages of the different secondary structure motifs are shown for Aβ1-40 at time 0 in (FIG. 1C) and 24 hours (FIG. 1D) and for Aβ1-42 at time 0 (FIG. 1G) and 4 hours (FIG. 1H). An average of 40 scans/independent experimental condition was obtained. An independent experiment yielded qualitatively similar data.
(§2) Peptides Aβ1-40 and Aβ1-42 were synthesized in the W. M. Keck Foundation (Yale University, Conn.), and their purity was evaluated by amino acid sequence and laser […] mass spectrometry as described (Soto et al., 1996).
(§3) Spectra in the far ultraviolet light (190-250 nm) were recorded at various time intervals with a Jasco-720 spectropolarimeter as described (Soto et al., 1996) using a cell path of 0.01 cm. […] 40 scans/experimental condition were obtained at 0.2 nm intervals over the wavelength range 190-250 nm. The data were analyzed by the Lincomb algorithm (Perczel et al., 1992) to obtain the percentages of the different secondary structure motifs.

Aβ1-40 [2] = target: T1, Aβ1-40; experiment: Electron microscopy of Aβ1-40 amyloid fibril formation; type: biochemical
Text: Bar is 200 nm. […] EM grids were extensively and carefully examined, and a negative result was only documented when fibrils were totally absent from the grids.

Aβ1-42 [3] = target: T2, Aβ1-42 (Homo sapiens, UniProt P05067); experiment: Circular dichroism spectroscopy of Aβ1-42 (secondary structure); conditions: for structural changes (secondary structure): Aβ1-42 250 μM + 100 μM compound, time 0 and 4 h; for amount of β-sheet structures: Aβ1-42 250 μM + melatonin 100 μM
T2 construct: aggregates to fibrils
Method: as §1, §2, §3

[4] = Tan et al., 1993, cited from earlier work
[5] = system: cultured neuroblastoma cells; conditions: cytotoxic fragment of amyloid β-protein; Pappolla et al., 1997; cited from earlier work
Aβ1-40 [6] = target: T1, Aβ1-40; experiment: 1H NMR titration of Aβ1-40 with melatonin (binding)
Method: The solution conditions for the NMR and CD studies were similar, except that deuterated water (D2 O) in phosphate buffer was used in the NMR study. All ^1 H NMR spectra were obtained at 600 MHz using a Varian UnityPlus-600 spectrometer, and the data were processed using the FELIX program (version 95.0, Biosym, Inc.). The NMR solutions were prepared in D2 O (0.6 ml) with sodium phosphate buffer (5 mM, pH 7.5), perdeuterated Na2 EDTA (0.5 mM), NaN3 (0.05 mM), and 3-(trimethylsilyl) propionate-2,2,3,3-d4 (0.05 mM), the last of which serves as a internal chemical shift reference at 0 ppm. The NMR measurements were performed at 10° C. and the residual proton absorption of D2 O was suppressed by low power irradiation during the recycle delay. For all spectra, 128 scans were required with a total recycle delay of 4.2 s, which included an acquisition time and recycle delay of 2.2 and 2.0 s, respectively. The digital resolution of the acquired data was 0.24 Hz/pt, which was reduced to 0.12 Hz/pt by zero-filling the data once before processing. To further improve the resolution, before Fourier transformation spectra were multiplied by a Lorentzian-to-Gaussian weighting factor. This experiment was duplicated on two different days.

microtubular components = conditions: Benitez-King et al., 1993; cited from earlier work
[7] = system: circadian disorders due to jet lag; conditions: oral, 0.25-10 mg; Arendt et al., 1987; cited from earlier work
[8] = cited from earlier work
[9] = system: intrinsic cellular antioxidant defenses; conditions: Huerto-Delgadillo et al., 1994; cited from earlier work
calmodulin = conditions: Benitez-King et al., 1993; cited from earlier work
Aβ1-42 [10] = target: T2, Aβ1-42; experiment: Electron microscopy of Aβ1-42 amyloid fibril formation; type: biochemical
Method: The formation of amyloid fibrils was monitored at 0, 2, and 6 h.

[11] = Aβ1-40, incubated for up to 48 h

T1 sequence (P05067 672-711): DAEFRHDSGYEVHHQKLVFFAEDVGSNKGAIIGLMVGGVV
T2 sequence (P05067 672-713): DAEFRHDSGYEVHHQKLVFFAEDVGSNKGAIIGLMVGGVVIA

SMILES: CC(C)(C)[N+]([O-])=Cc1ccccc1 [PBN, N-t-butyl-α-phenylnitrone]
structural changes (secondary structure) (Aβ1-40 [1]): only small effects | change of random conformation (Aβ1-40 [1]): This effect was not observed | change of β-sheet content (Aβ1-40 [1]): This effect was not observed | Aβ1-40 fibril formation (Aβ1-40 [2]; [11]): Well formed amyloid fibrils are easily recognized; also recorded: fibrils were abundant and easily identifiable | Aβ1-40 fibril formation (Aβ1-40 [2]; PBN 10, 100, and 200 μM, 48 h): Fibrils were abundant in all these tubes | structural changes (secondary structure) (Aβ1-42 [3]): not elicited

change of random conformation (Aβ1-40 [1]): immediate increase | change of β-sheet content (Aβ1-40 [1]): markedly diminished | β-sheet content (Aβ1-40 [1]; Aβ1-40 250 μM + melatonin 100 μM, 24 h of incubation): 24% | exchange regime of binding (Aβ1-40 [6]; no line broadening or separate peaks for bound and free states): fast exchange limit | concentration of melatonin inhibiting fibril formation in all tubes (Aβ1-40 [2]; 250 μM Aβ1-40, 48 h): above 10 μM | Aβ1-40 fibril formation (Aβ1-40 [2]; 250 μM Aβ1-40 plus 100 μM melatonin): only amorphous material | amount of β-sheet structures (Aβ1-42 [3]; 4 h of incubation): 59% | amount of β-sheet structures (Aβ1-42 [3]; time 0): 65% | Aβ1-42 fibril formation (Aβ1-42 [10]; 250 μM Aβ1-42, 2 and 6 h): only amorphous material | inhibition of Aβ1-42 fibril formation (Aβ1-42 [10]; melatonin 100 nM, 1 μM, 10 μM, 100 μM, and 200 μM): effective to inhibit fibril formation
SMILES: COc1ccc2[nH]cc(CCNC(C)=O)c2c1 [melatonin, N-[2-(5-methoxy-1H-indol-3-yl)ethyl] acetamide]
crossing of the blood-brain barrier [4]: passes easily across the blood-brain barrier; also recorded: crosses the blood-brain barrier with ease | crossing of the blood-brain barrier ([4]; listed as Melatonin): rapidly crosses the blood brain barrier | prevention of cell death [5]: effective in preventing death of cultured neuroblastoma cells | prevention of intracellular Ca^+2 increases [5]: effective in preventing | prevention of oxidative damage [5]: effective in preventing | site of binding on Aβ (Aβ1-40 [6]; NMR shifts with varied melatonin concentrations): not localized to a particular His site on Aβ | interaction with microtubular components (microtubular components): interacts | Aβ1-40 fibril formation (Aβ1-40 [2]; [11]): Fibrils were not formed; also recorded: no fibrils were detected | treatment of circadian disorders due to jet lag [7]: used successfully to treat circadian disorders due to jet lag | lipid solubility [8]: lipid soluble | activity of intrinsic cellular antioxidant defenses [9]: increase the activity | interaction with calmodulin (calmodulin): interacts with calmodulin | Aβ1-42 fibril formation (Aβ1-42 [10]; 6 hrs., melatonin 100 μm (so in the source)): Well formed amyloid fibrils are easily recognized in FIG. 3A, but not in FIG. 3B

structural changes (secondary structure) (Aβ1-40 [1]): no structural changes | change of random conformation (Aβ1-40 [1]): This effect was not observed | change of β-sheet content (Aβ1-40 [1]): This effect was not observed | structural changes (secondary structure) (Aβ1-42 [3]): not elicited
SMILES: CC(=O)NCCc1c[nH]c2ccc(O)cc12 [NAT, 5-hydroxy-N-acetyl-tryptamine]
Aβ1-40 fibril formation (Aβ1-40 [2]; [11]): Well formed amyloid fibrils are easily recognized; also recorded: fibrils were abundant and easily identifiable
